Source: ChEMBL document CHEMBL3112428, “Biological evaluation of diazene derivatives as anti-tubercular compounds” (Eur J Med Chem, 2014)
In brackets after ≈: the same amount, converted by molar mass.

tested on: Mycobacterium tuberculosis variant bovis; test: Antituberculosis activity against Mycobacterium bovis AN5 expressing lux gene assessed as inhibition of bacterial replication after 6 days by luminometry analysis; type: functional, organism-based; conditions: AN5, 144 h

Row | SMILES | IC50 [µg/mL]
1 | O=C(/N=N/c1ccc([N+](=O)[O-])cc1)Nc1ccccc1 | 2.21 (≈ 8.18 µM)
2 | O=C(/N=N/c1ccc(C(F)(F)F)cc1)Nc1ccccc1 | 1.05 (≈ 3.58 µM)
3 | CCOC(=O)/N=N/C(=O)Nc1ccc(C)cc1 | 2.78 (≈ 11.8 µM)
